Each structure is given as a SMILES string. Read-outs that look alike come from different tables or passages of the source.

Series [1] relates to colorectal (HT29). More on the design: method as in PMID 23701832, PMID 26503061, PMID 30944714, PMID 27002410, PMID 33676992. Particulars: read-out: cytotoxic activity HT29; cited from earlier work.
Series [2] concerns chronic myelogenous leukemia (K562). Particulars: cited from earlier work.
Series [3] relates to cervical (HeLa). Particulars: cited from earlier work.
Series [4] relates to MCF-7. In words: MTS cell viability (cytotoxic activity) assay, MCF-7. It counts as cell-based, Human. Particulars: for IC50: Homo sapiens, MCF7, MCF-7, MTS, 72 h, mean ± SD, at least three experiments. The text has this:
(§1) Human colorectal cancer (COLO 205, CCL-222), breast cancer (MCF-7, HTB-22), chronic myelogenous leukemia (K-562, CCL-243), and umbilical vein/vascular endothelium (HUVEC, CRL-1730) cell lines were obtained from the American Type Culture Collection. The COLO 205, MCF-7, K-562, and HUVEC cell lines were maintained in Roswell Park Memorial Institute ([…], Wisent, Montreal, QC, CANADA), Eagle′s Minimum Essential Medium (EMEM, Wisent, Montreal, QC, CANADA), Iscove’s Modified Dulbecco’s Medium (IMDM, Wisent, Montreal, QC, CANADA), and Dulbecco′s Modified Eagle Medium (DMEM, Wisent, Montreal, QC, CANADA) supplemented with 10% fetal bovine serum (Capricorn, Ebsdorfergrund, Germany), 100 U/mL penicillin, and 100 µg/mL streptomycin (Wisent, Montreal, QC, CANADA), respectively. All of the cell lines were cultured at 37 °C in a humidified atmosphere containing 5% CO2.
(§2) A 3-[4,5-dimethylthiazol-2-yl]-5-[3-carboxymethoxyphenyl]-2-[4-sulfophenyl]-2H-tetrazolium, inner salt (MTS) cell viability assay was performed to evaluate the cytotoxic activities of the sesquiterpene coumarin ethers isolated from Ferula huber-morathii. HUVEC (1 × 10^4), COLO 205 (3 × 10^4), K-562 (3 × 10^4), and MCF7 (5 × 10^4) were plated in 96-well plates. Then, 24 h later, the tested compounds were dissolved in DMSO, and the cells were exposed to the different concentrations (131.58–1.028 µM) of the compounds for 72 h. Cisplatin and doxorubicin were used as a positive control. Next, an MTS/phenazine methosulfate (PMS) (Promega, Madison, WI, USA and Sigma, St. Louis, MO, USA respectively) mixture was added to each well and incubated for 1–4 h at 37 °C. The absorbance was read on a microplate reader (Biotek, Winooski, VT, USA) at 490 nm. The cytotoxic activities of the compounds were expressed as an IC50 value. The % inhibition of cell proliferation was calculated using the formula: % Inhibition = [1-(A490test/A490cont)] × 100, where A490test = absorbance of the test sample and A490cont = absorbance of the control sample [88]. The values of the 50% inhibition of the cell proliferation (IC50) were calculated by locating the x-axis values corresponding to one-half of the absorbance values of the sample.

Series [5] concerns melanoma (SK-MEL-28). The settings on record: cited from earlier work.
Series [6] concerns lung (A549). Particulars: cited from earlier work.
The test system of series [7] is bladder cancer cells (5637). Particulars: cited from earlier work.
Series [8] deals with colon (HCT116). Particulars: cited from earlier work.
The subject of series [9] is breast (MDA-MB-231). More on the design: method as in PMID 23701832, PMID 26503061, PMID 30944714, PMID 27002410, PMID 33676992. Particulars: cited from earlier work.
Series [10] concerns COLO 205. The series can be described thus: MTS cell viability (cytotoxic activity) assay, COLO 205. It counts as cell-based, Human. Particulars: Homo sapiens; COLO 205, MTS, 72 h; mean ± SD, at least three experiments.
Excerpt: as §1, §2

Series [11] relates to HUVEC. In words: MTS cell viability (cytotoxic activity) assay, non-cancerous HUVEC. It counts as cell-based, Human. Particulars: Homo sapiens, 72 h, mean ± SD, at least three experiments.
Excerpt: as §1, §2

Series [12] concerns ovarian (A2780). Particulars: cited from earlier work.
The test system of series [13] is ovarian carcinoma cells (CH1). Set-up: method as in PMID 23701832. Particulars: cited from earlier work.
Series [14] deals with MCF-7 breast cancer cell line. Particulars: cited from earlier work.
Series [15] deals with cisplatin-resistant derivatives of the human ovarian (A2780P A2780/RCIS). Particulars: cited from earlier work.
Series [16] has as its system COLO 205, K-562, MCF-7 and HUVEC cell lines. In words: MTS cytotoxicity, overall verbal grading over the cell line panel. It counts as cell-based, Human. Particulars: authors' verbal summary over COLO 205, K-562, MCF-7, HUVEC.
Excerpt: as §1, §2

The test system of series [17] is K-562. In words: MTS cell viability (cytotoxic activity) assay, K-562. It counts as cell-based, Human. Particulars: for IC50: Homo sapiens, K562, K-562, MTS, 72 h, mean ± SD, at least three experiments.
Excerpt: as §1, §2

Series [18] relates to stomach (AGS). More on the design: method as in PMID 25843566, PMID 20961138, PMID 20628935, PMID 22351980, PMID 25818230. The settings on record: cited from earlier work.
In series [19] the test system is Bcl-XL. The series can be described thus: Western blot, Bcl-XL protein level in HUVEC. It counts as cell-based, Human. (In general: Immunoblotting shows a protein as a band on a membrane.)
For series [20], the system named is caspase-9. In words: Caspase-9 colorimetric activity assay in COLO 205 cells. It counts as cell-based, Human. Particulars: COLO 205, 24 h, highest concentration (131.58 µM). The protocol:
(§3) The caspase-3, -8, and -9 activities were detected by following the protocol of the caspase-3, -8, -9 colorimetric assay kits (Biovision, K106, K113, K119, Mountain View, CA, USA). The cells treated with mogoltadone (5) for 24 h were harvested and lysed with a RIPA (50 mM Tris-HCl, pH 8.0, 150 mM NaCl, 1% Nonidet P-40, 0.5% sodium deoxycholate and 0.1% SDS) cell lysis buffer. The lysed cells were centrifuged at 22,000 g for 30 min and the supernatant was collected in a tube. The samples (200 µg protein) were incubated with caspase substrates (final concentration, 200 µM) at 37° C for 2 h and read on a microplate reader at 405 nm. The fold-increase in enzyme activity was detected by comparison with the untreated control.

In series [21] the test system is caspase-3. In words: Western blot, caspase-3 protein level in HUVEC. It counts as cell-based, Human. The protocol:
(§4) To evaluate the effect of mogoltadone (5) on the caspase-3, Bcl-XL and β-catenin protein levels, the COLO 205 cell line was treated with mogoltadone (5) and incubated for 24 h. At the end of the incubation period, the treated cells were harvested. After that, the harvested cells were washed with cold phosphate buffered saline and lysed in a RIPA buffer. The samples were centrifuged at 24,000 g for 45 min at 4° C, and the supernatants were used to determine the procaspase-3, Bcl-XL, β-catenin, and β-actin protein levels by western blot analysis. The cellular proteins were separated on sodium dodecyl sulfate-polyacrylamide gels (SDS-PAGE, AnyKD mini protean TGX precast protein gel, Bio-Rad, Hercules, CA, USA, 4569033). The separated proteins were transferred to the polyvinylidene difluoride (PVDF) membrane using the Trans-Blot Turbo transfer system (Bio-Rad). The membrane was then blocked with a 5% non-fat milk blocking buffer and consecutively incubated with rabbit monoclonal Bcl-XL antibody (1:20,000, ab17884, Abcam), rabbit monoclonal caspase-3 antibody (1:3000, ab3235, Abcam, Cambridge, MA, USA), rabbit monoclonal beta-actin antibody (1:10,000, M01263, BOSTER, Beijing, China), and rabbit polyclonal β-catenin antibody (1/5,000, ab264263, Abcam, Cambridge, MA, USA) overnight at 4° C. […]

The test system of series [22] is procaspase-3. In words: Western blot, procaspase-3 protein level in COLO 205. It counts as cell-based, Human. Particulars: COLO 205, 24 h, significant at 131.58 µM. The protocol:
as §4

Series [23] relates to caspase-3. In words: Caspase-3 colorimetric activity assay in COLO 205 cells. It counts as cell-based, Human. Particulars: COLO 205, 24 h, highest concentration (131.58 µM). The protocol: as §3
For series [24], the system named is Bcl-XL. In words: Western blot, Bcl-XL protein level in COLO 205. It counts as cell-based, Human. Particulars: COLO 205, 24 h. The method, then:
as §4

For series [25], the system named is β-catenin. In words: Western blot, β-catenin protein level in COLO 205. It counts as cell-based, Human. Particulars: COLO 205, 24 h. The method, then: as §4
Series [26] has as its system β-catenin. The series can be described thus: Western blot, β-catenin protein level in HUVEC. It counts as cell-based, Human.
Series [27] has as its system caspase-8. The series can be described thus: Caspase-8 colorimetric activity assay in COLO 205 cells. It counts as cell-based, Human. Particulars: COLO 205, 24 h, highest concentration (131.58 µM). The protocol: as §3

With `CC1=CC[C@@H]2C(C)(C)C(=O)CC[C@@]2(C)[C@@H]1COc1ccc2ccc(=O)oc2c1` [Conferone (1), conferone], the IC50 in series [1] was 20 µM; in series [3] (read-out: cytotoxic activity HeLa), 38 µM; in series [4] it was 34 ± 0.68 µM; in series [5] (read-out: cytotoxic activity SK-MEL-28) it was 64 µM; in [6] (read-out: cytotoxic activity A549) it was 38 µM; in series [8] (HCT116, read-out: cytotoxic activity HCT116), 32 µM. In addition, the IC50 in [10] is 27.6 ± 0.69 µM; in series [11], 46.1 ± 0.99 µM; in [12] (read-out: cytotoxic activity A2780) it was 32 µM; in series [13] (ovarian carcinoma cells (CH1)) it was 7.8 µM; in series [14] (read-out: cytotoxic activity MCF-7), more than 100 µM; in series [15] (A2780P A2780/RCIS, read-out: cytotoxic activity A2780P A2780/RCIS), 25 µM. The same compound came in with an IC50 in series [17] of 55.5 ± 0.94 µM. For the same compound, the “cytotoxic activity K562” value in series [2] is 86.12 µg/mL. Besides, the “cytotoxic effect on bladder cancer cells (5637), in words” value in series [7] (5637) is “no cytotoxic effect”. The “cytotoxic activity MDA-MB-231” value in series [9] is reported as 30 µg/mL. In addition, the cytotoxicity in words entry is recorded as “moderate or strong cytotoxicity” in series [16] (listed as 1) and “moderate cytotoxic effect” in series [16] (listed as conferone (1)).
As to `CC1=CC[C@@H]2C(C)(C)[C@H](O)CC[C@@]2(C)[C@@H]1COc1ccc2ccc(=O)oc2c1` [Feselol (3), feselol], the “cytotoxic activity on K562, in words” value in [2] is “did not show any cytotoxic activity”. For the same compound, the “cytotoxic activity on HeLa, in words” value in series [3] is reported as “did not show any cytotoxic activity”. Further, the IC50 in [3] (ref Soltani et al. 67, read-out: cytotoxic activity HeLa) is 35 µM; in series [4], 36 ± 1.29 µM; in series [6] (ref Soltani et al. 67, read-out: cytotoxic activity A549) it was 26 µM; in series [8] (HCT-116, ref Soltani et al. 67, read-out: cytotoxic activity HCT-116), 28 µM; in series [10], 38.4 ± 0.8 µM; in series [11], 38.8 ± 0.83 µM. In addition, the IC50 in series [12] (ref Soltani et al. 67, read-out: cytotoxic activity A2780) is 20 µM; in [17], 72.5 ± 0.74 µM. Further, the “cytotoxic activity on bladder (TCC, 5637), in words” value in series [7] (bladder (TCC, 5637)) is listed as “did not show any cytotoxic activity”. The “cytotoxic activity on stomach (AGS), in words” value in series [18] was “did not show any cytotoxic activity”. In addition, the cytotoxicity in words entry in series [16] is “moderate or strong cytotoxicity”.
`C=C1CCC2C(C)(C)C(=O)CCC2(C)C1COc1ccc2ccc(=O)oc2c1` (centres unmarked) [Mogoltadone (5), mogoltadone]: the “effect on Bcl-XL protein level” value in series [19] is on record as “did not have a statistically significant effect”. Moreover, in [20], the “increase in caspase-9 activity compared with the control” value came to 1.97 fold. In addition, in series [21], the “effect on caspase-3 protein level” value is recorded as “did not have a statistically significant effect”. Moreover, the “effect on procaspase-3 level” value in series [22] is listed as “decreased”. The “selectivity index MCF-7” value in [4] (HUVEC versus MCF-7) is more than 8.64. The IC50 in series [4] is 30.4 ± 0.6 µM; in series [10], 31.71 ± 0.15 µM; in [11], more than 200 µM; in [14] (read-out: cytotoxic effect MCF-7) it was more than 100 µM; in series [15] (A2780/RCIS, read-out: cytotoxic effect A2780/RCIS) it was more than 50 µM; in series [17], 21.1 ± 0.85 µM. Also, in [5] (ref Valiahdi et al. 29), the “cytotoxic activity against SK-MEL-28, in words” value is reported as “did not find any potent cytotoxic activity”. In series [6] (ref Valiahdi et al. 29), the “cytotoxic activity against A549, in words” value is given as “did not find any potent cytotoxic activity”. In addition, the “increase in caspase-3 activity compared with the control” value in series [23] worked out at 4.72 fold. For the same compound, in series [24], the “effect on Bcl-XL level” value is “suppressed”. In addition, the “effect on β-catenin levels” value in [25] is listed as “decreased”. In series [26], the “effect on β-catenin protein level” value is “did not have a statistically significant effect”. In addition, the “increase in caspase-8 activity compared with the control” value in [27] turned out to be 2 fold. For the same compound, in series [13] (ovarian carcinoma cell line (CH1)), the “cytotoxic effect against CH1, in words” value is listed as “moderate cytotoxic effects”. Moreover, the “effect of combination with cisplatin on cisplatin cytotoxicity” value in [15] (A2780/RCIS cells, combination with cisplatin) was “significantly enhanced the cisplatin cytotoxicity”. Moreover, the cytotoxicity in words entry in [16] is on record as “moderate or strong cytotoxicity”. Further, the “selectivity index K-562” value in [17] (HUVEC versus K-562) is recorded as more than 12.46.

Values taken from PMC10305617, “Sesquiterpene Coumarin Ethers with Selective Cytotoxic Activities from the Roots of Ferula huber-morathii Peşmen (Apiaceae) and Unequivocal Determination of the Absolute Stereochemistry of Samarcandin” (Pharmaceuticals, 2023).
